# Test results as given in the supplement of paper PMC10307832.
# Columns and labels:
# Assay in all cases: relative viability (nuclei count vs DMSO), 5 days (fraction); higher = more cells survive
# [1] = compound: C1=CC=C2C(=C1)N=C(S2)C(C#N)C3=NC(=NC=C3)NCCC4=CN=CC=C4 + Nc1nc2[nH]cc(CCc3ccc(C(=O)N[C@@H](CCC(=O)O)C(=O)O)cc3)c2c(=O)[nH]1 [Pemetrexed] (partner 0.2 µM)
# Outline: (§1)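 Nuclei were stained with Hoechst during a one-step fixation (final 0.05% Triton X-100, 1% formaldehyde, 1 ug/ml Hoechst) carried out 5 days after dosing, then counted on 4× images. The cells, lung cancer lines in 1536-well plates, had been dosed by pin tool the day after seeding with one drug alone or a fixed anchor-drug dose plus five library-drug doses (not always all listed) in √10 steps. Relative viability is the nuclei count in treated wells divided by that in vehicle wells, and each value is the median of duplicate plates.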
# Vandetanib + Alpelisib = compound: COc1cc2/c(=N/c3ccc(Br)cc3F)nc[nH]c2cc1OCC1CCN(C)CC1 [Vandetanib] + Cc1nc(NC(=O)N2CCC[C@H]2C(N)=O)sc1-c1ccnc(C(C)(C)C(F)(F)F)c1 [Alpelisib] (partner 2 µM)
# Outline: as §1
# Vandetanib + Navitoclax = compound: COc1cc2/c(=N/c3ccc(Br)cc3F)nc[nH]c2cc1OCC1CCN(C)CC1 [Vandetanib] + CC1(C)CCC(c2ccc(Cl)cc2)=C(CN2CCN(c3ccc(C(=O)NS(=O)(=O)c4ccc(N[C@H](CCN5CCOCC5)CSc5ccccc5)c(S(=O)(=O)C(F)(F)F)c4)cc3)CC2)C1 [Navitoclax] (partner 0.5 µM)
# Outline: as §1
# CUDC-101 + Crizotinib = compound: C#Cc1cccc(Nc2ncnc3cc(OC)c(OCCCCCCC(=O)NO)cc23)c1 [CUDC-101] + C[C@@H](Oc1cc(-c2cnn(C3CCNCC3)c2)cnc1N)c1c(Cl)ccc(F)c1Cl [Crizotinib] (partner 1 µM)
# Outline: as §1
Cell Line,relative viability ([1]; first compound 0.005 µM),relative viability ([1]; first compound 0.01581 µM),relative viability ([1]; first compound 0.05 µM),relative viability ([1]; first compound 0.1581 µM),relative viability ([1]; first compound 0.5 µM),relative viability (Vandetanib + Alpelisib; first compound 0.02 µM),relative viability (Vandetanib + Alpelisib; first compound 0.06325 µM),relative viability (Vandetanib + Alpelisib; first compound 0.2 µM),relative viability (Vandetanib + Alpelisib; first compound 0.6325 µM),relative viability (Vandetanib + Alpelisib; first compound 2 µM),relative viability (Vandetanib + Navitoclax; first compound 0.02 µM),relative viability (Vandetanib + Navitoclax; first compound 0.06325 µM),relative viability (Vandetanib + Navitoclax; first compound 0.2 µM),relative viability (Vandetanib + Navitoclax; first compound 0.6325 µM),relative viability (Vandetanib + Navitoclax; first compound 2 µM),relative viability (CUDC-101 + Crizotinib; first compound 0.01 µM),relative viability (CUDC-101 + Crizotinib; first compound 0.03162 µM),relative viability (CUDC-101 + Crizotinib; first compound 0.1 µM),relative viability (CUDC-101 + Crizotinib; first compound 0.3162 µM),relative viability (CUDC-101 + Crizotinib; first compound 1 µM)
NCI-H2085,0.763,0.785,0.843,0.851,0.89,0.98,0.901,0.873,0.869,0.936,1.23,1.07,1.12,1.03,1,0.865,0.861,0.772,0.779,0.682
NCI-H2087,0.616,0.661,0.634,0.645,0.645,0.953,1.17,1.28,1.04,1.07,1.02,0.832,0.948,1.16,1.08,0.798,0.959,0.804,0.855,0.642
NCI-H2126,0.577,0.73,0.652,0.69,0.726,0.787,0.74,0.757,0.737,0.674,0.865,0.859,0.84,0.866,0.727,1.07,1.08,1.01,1.01,0.866
NCI-H2170,0.275,0.26,0.27,0.27,0.274,0.782,0.799,0.746,0.805,0.781,0.621,0.618,0.565,0.567,0.502,1.14,1.23,1.17,1.2,0.732
NCI-H2228,0.302,0.324,0.305,0.379,0.259,0.75,0.587,,0.712,0.624,0.917,0.482,,0.938,0.695,0.46,0.551,0.492,0.411,0.318
NCI-H2347,0.405,0.515,0.471,0.409,0.461,1.01,0.591,1.05,1.28,1.03,0.878,0.453,0.834,0.945,0.708,0.749,0.68,0.714,0.673,0.721
NCI-H2405,1.14,0.998,1.07,1.1,0.98,0.813,0.405,0.733,0.958,0.677,0.786,0.426,0.889,1.23,0.696,0.809,0.788,0.843,0.924,0.765
NCI-H3122,0.187,0.197,0.206,0.214,0.194,0.781,0.756,0.778,0.765,0.822,0.99,0.998,1.03,0.994,1.03,0.265,0.282,0.271,0.317,0.265
PC-3 [JPC-3],1.14,,1.08,1.37,0.914,1.03,1,0.982,0.736,0.507,0.783,0.738,0.777,0.719,0.451,0.983,0.97,0.82,0.82,0.278
PC-14,0.155,0.133,0.106,0.136,0.148,0.922,0.846,0.911,0.447,0.182,1.02,0.953,1.07,0.504,0.307,0.935,0.825,0.848,0.76,0.301
RERF-LC-KJ,0.468,0.505,0.465,0.507,0.502,0.82,0.694,0.833,0.774,0.678,0.952,0.746,0.835,1.06,0.605,0.771,0.903,0.788,0.825,0.686
SK-LU-1,0.81,1.06,0.956,1.12,0.89,1.06,0.594,1.02,0.926,0.758,0.954,0.571,0.794,0.953,0.789,1.13,1.03,0.795,0.77,0.579
SK-MES-1,0.799,0.923,0.823,1.04,0.644,0.913,0.929,0.86,0.851,0.646,1.26,1.04,1.24,1.27,1.2,1.06,1,1.02,1.04,0.945
SW 1573,0.598,0.782,0.702,0.9,0.629,0.75,0.726,0.753,0.969,0.743,1.03,0.895,1.25,0.862,0.993,0.805,0.804,0.927,1.09,0.423
